The results in this text go back to US12673120B2, “Fluorescently-traceable amino acid derivative and preparation methods and use thereof” (priority 2020, dated 2026).

Some results are limits rather than exact numbers.

The test system of data set [1] is MCF-7 (human breast cancer cells). The experiment in a line: In vitro anti-tumor cell proliferation activity (MTT method), MCF-7. The settings on record: MCF-7; 48 h; Mean ± SD; read-out: IC50 values of in vitro anti-cell proliferation activity. Format: cell-based.
Method: (§2) Tested cell lines S180 (mouse ascites tumor cells), LLC (mouse lung cancer cells), A549 (human non-small cell lung cancer cells), HCT116 (human colon cancer cells), U2Os (human osteosarcoma cells), and MCF-7 (human breast cancer cells) each were purchased from Nanjing KeyGen Biotech.
(§3) When preparing a test sample, the test compound was prepared into a sample solution with a concentration of 500 μM (with a final concentration 100 μM) by a PBS buffer containing 0.5% DMSO, which was used for preliminary screening of an anti-cell proliferation experiment in vitro.
(§4) Positive control group: doxorubicin, prepared to a required concentration with PBS buffer containing 0.5% DMSO; negative control group: a PBS buffer containing 0.5% DMSO; blank group: a PBS buffer containing 0.01% DMSO.
Data set [2] has as its system HCT116 (human colon cancer cells). As to the kind of experiment: In vitro anti-tumor cell proliferation activity (MTT method), HCT116. The class given is cell-based. The note with it: HCT116; 48 h; Mean ± SD; read-out: IC50 values of in vitro anti-cell proliferation activity.
Method: as §2, §3, §4
Data set [3] is described as follows: Viscera-weight ratio / toxicity in tumor-bearing mice. Format: in vivo, male ICR mice. The settings on record: for Effect on liver weight (viscera-weight ratio) compared with Vehicle group / Effect on brain weight (viscera-weight ratio) compared with Vehicle group: FIG. 5; for Effect on liver weight (viscera-weight ratio) compared with Vehicle group: ZD-E-1 at high dosages (10 μmol/kg and 5 μmol/kg); for Effect on brain weight (viscera-weight ratio) compared with Vehicle group: ZD-E-1 at three dosages. On the procedure:
(§1) The specific method included: drugs were administered to tumor-forming mice by group for 7 consecutive days, a length of the tumor was measured every other day to calculate a tumor volume. 24 h after the last administration, the mice were weighed, anesthetized with diethyl ether, and eyeballs were removed to collect blood; the obtained whole blood was centrifuged at 1,000 rpm for 10 min, and a serum was absorbed for later use. The mice were sacrificed by neck dislocation, and the tumor mass and various organs were stripped and weighed (it was ensured that the operation was done as soon as possible and the stripping was complete and clean). The tumor inhibition rate was calculated by formula b, the results were shown in Table 2 and FIG. 2; and by calculating a viscera-weight ratio of each organ, and it was analyzed whether the test compound had obvious physiological effects on the mouse organs.
After a preliminary study on the in vivo anti-tumor growth activity of different amino acid main compounds, ZD-A, ZD-B, ZD-E-1, and ZD-E-1 with an increased side-chain methylene unit (ZD-F-1) were selected; three dosages of 10 μmol/kg, 5 μmol/kg, and 2 μmol/kg were set to evaluate the inhibitory ability of the four compounds on tumor growth in mice. […] Afterwards, the tumor growth trend and the viscera-weight ratio of the two compounds on mice were analyzed to compare the anti-tumor growth ability and toxicity of the two compounds. The results were shown in FIG. 4 and FIG. 5: after one-way analysis of variance, * meant that compared with the Vehicle group, there was a difference, P<0.05; ** represented a significant difference compared with the Vehicle group, P<0.01.

The next data set concerns mouse S180 sarcoma model. The experiment in a line: Inhibition of tumor growth in vivo (mouse S180 sarcoma model). The settings on record: for Tumor growth trend in mice: FIG. 4, ZD-E-1 versus ZD-F-1; for Average tumor weight: Mean ± SD, n 10. Details: species or system male ICR mice. The method, then:
The mice used in the experiment were male ICR mice of SPF grade, weighing 20 g±2 g, purchased from Beijing Vital River Laboratory Animal Technology Co., Ltd., and raised in an animal barrier of the Experimental Animal Department of Capital Medical University.
as §1

The nature of another data set: Water solubility. Format: physicochemical. The settings on record: decides the injection route.
Data set [4] relates to A549 (human non-small cell lung cancer cells). As to the kind of experiment: In vitro anti-tumor cell proliferation activity (MTT method), A549. Format: cell-based. The settings on record: A549; 48 h; Mean ± SD; read-out: IC50 values of in vitro anti-cell proliferation activity.
Method: as §2, §3, §4
Data set [5] has as its system U2Os (human osteosarcoma cells). As to the kind of experiment: In vitro anti-tumor cell proliferation activity (MTT method), U2Os. Format: cell-based. The note with it: U2Os; 48 h; Mean ± SD; read-out: IC50 values of in vitro anti-cell proliferation activity.
Method: as §2, §3, §4
Data set [6] has as its system LLC (mouse lung cancer cells). The experiment in a line: In vitro anti-tumor cell proliferation activity (MTT method), LLC. The class given is cell-based. The note with it: LLC; 48 h; Mean ± SD; read-out: IC50 values of in vitro anti-cell proliferation activity. A general note: Tetrazolium dyes change colour on reduction, which living cells bring about.
Method: as §2, §3, §4
Data set [7] deals with S180 (mouse ascites tumor cells). The experiment in a line: In vitro anti-tumor cell proliferation activity (MTT method), S180. Format: cell-based. The settings on record: S180; 48 h; Mean ± SD; read-out: IC50 values of in vitro anti-cell proliferation activity.
Method: as §2, §3, §4
Data set [8] in a line: Nanomorphology characterization and stability (TEM, SEM, hydration particle size, Zeta potential). The class given is physicochemical. The source says:
The nanomorphology of compounds ZD-B and ZD-E-1 were studied by TEM and SEM, and hydration particle size and Zeta potential of the two compounds in a solution were studied by a nanometer particle size analyzer. The results were shown in FIG. 1A-H. In FIG. 1A-H, FIG. 1A was a TEM image of the compound ZD-B; FIG. 1B was a TEM image of the compound ZD-E-1; FIG. 1C was a SEM image of the compound ZD-B; FIG. 1D was a SEM image of the compound ZD-E-1; FIG. 1E was a hydration particle size change curve of the compound ZD-B in solutions at different pH values within 72 h (0.5 h, 24 h, 48 h, and 72 h); FIG. 1F was a hydration particle size change curve of the compound ZD-E-1 in solutions at different pH solutions within 72 h; FIG. 1G was a Zeta potential change curve of the compound ZD-B in solutions at different pH values within 72 h; and FIG. 1H was a Zeta potential change curve of the compound ZD-E-1 in solutions at different pH values within 72 h.

Setting [9] is: Table 2, 10 μmol/kg, ip, 7 consecutive days.
[10] abbreviates: three dosages 10, 5, 2 μmol/kg, iv.

`N=C(CCl)NCCCC[C@H](Nc1ccc([N+](=O)[O-])c2nonc12)C(=O)NCc1ccccc1` [ZD-F-1, NBD-Lys(C1)-NBzl]: the IC50 was 68.7 ± 1.5 µM in data set [1]; 38.9 ± 2.05 µM in data set [2]; over 100 µM in data set [4]; 45.7 ± 1.68 µM in [5]; over 100 µM in data set [6]; 23.7 ± 2.29 µM in [7]. Also, in data set [3], the “Effect on liver weight (viscera-weight ratio) compared with Vehicle group” value is recorded as “no difference”. Also, the “Effect on brain weight (viscera-weight ratio) compared with Vehicle group” value in data set [3] is listed as “no difference”. Moreover, the “Tumor growth trend in mice” value in the data set on mouse S180 sarcoma model was “roughly the same”. The “Tumor Inhibition Rate” value in the data set on mouse S180 sarcoma model (Table 3, 2 μmol/kg, iv) came to 13.32%; in the data set with mouse S180 sarcoma model (Table 3, 5 μmol/kg, iv), 30.54%; in the data set on mouse S180 sarcoma model (Table 3, 10 μmol/kg, iv), 39.99%. Moreover, the Average tumor weight in the data set on mouse S180 sarcoma model (Table 3, 2 μmol/kg, iv) is 1.487 ± 0.660 g; in the data set with mouse S180 sarcoma model (Table 3, 5 μmol/kg, iv), 1.191 ± 0.407 g; with mouse S180 sarcoma model (Table 3, 10 μmol/kg, iv) it was 1.029 ± 0.423 g. Besides, in the data set “Water solubility”, the Water solubility entry was “had no such concerns”.
With `N=C(CCl)NCCC[C@H](Nc1ccc([N+](=O)[O-])c2nonc12)C(=O)NCc1ccccc1` [ZD-E-1, (S)—N-benzyl-5-(2-chloroacetimido)-2-((7-nitro-2,1,3-benzoxadiazol-4-yl)amino)pentaneamide], the IC50 worked out at 40.5 ± 1.91 µM in [1]; 22.6 ± 1.45 µM in data set [2]; 45.5 ± 0.672 µM in data set [4]; 28.8 ± 1.14 µM in [5]; 26.1 ± 2.58 µM in [6]; 24.6 ± 1.72 µM in data set [7]. Moreover, the “Effect on liver weight (viscera-weight ratio) compared with Vehicle group” value in [3] is “different from those in the Vehicle group”. In data set [3], the “Effect on brain weight (viscera-weight ratio) compared with Vehicle group” value is on record as “different from those in the Vehicle group”. In data set [3] (mice, compared with ZD-F-1), the Toxic side effects result was “more obvious toxic side effects, causing liver failure and brain lesions in mice”. Moreover, the “Anti-tumor growth activity (in words)” value with mouse S180 sarcoma model (10 μmol/kg, ip) is “most prominent activities”; in the data set with mouse S180 sarcoma model (setting [10]), “desirable and stable anti-tumor growth activity”. The “Average tumor weight compared with Vehicle group (one-way analysis of variance)” value in the data set on mouse S180 sarcoma model (10 μmol/kg, ip) is “significantly different from that of Vehicle group”; in the data set on mouse S180 sarcoma model (setting [10]), “significant differences compared with the Vehicle group”. In the data set on mouse S180 sarcoma model, the “Tumor growth trend in mice” value is given as “roughly the same”. In addition, the Tumor Inhibition Rate is on record as 40.01% in the data set on mouse S180 sarcoma model (setting [9]); 39.23% with mouse S180 sarcoma model (Table 3, 2 μmol/kg, iv); 41.65% with mouse S180 sarcoma model (Table 3, 5 μmol/kg, iv); 42.73% in the data set with mouse S180 sarcoma model (Table 3, 10 μmol/kg, iv). For the same compound, the Average tumor weight in the data set with mouse S180 sarcoma model (setting [9]) turned out to be 1.072 ± 0.386 g; in the data set on mouse S180 sarcoma model (Table 3, 2 μmol/kg, iv), 1.042 ± 0.205 g; in the data set on mouse S180 sarcoma model (Table 3, 5 μmol/kg, iv), 1.001 ± 0.196 g; with mouse S180 sarcoma model (Table 3, 10 μmol/kg, iv), 0.982 ± 0.300 g. In addition, the “Average tumor weight compared with the YW3-56 group” value in the data set on mouse S180 sarcoma model (setting [10]) is “no difference compared with the YW3-56 group”. For the same compound, in [8] (TEM and SEM), the “Nanomorphology (shape)” value is on record as “shape of a ball”. The “Hydration particle size change” value in [8] (pH=2.0, measured continuously for 72 h) was “particle size hardly changed”; in data set [8] (pH=5.5, measured continuously for 72 h), “particle size increased and then decreased”. For the same compound, the Hydration particle size entry in [8] (pH=7.0 versus other pH values, 72 h) is reported as “smallest particle size at pH=7.0”. The Zeta potential change result in [8] (solutions at different pH values, measured continuously for 72 h) is “neither ZD-B nor ZD-E-1 had an obvious change”. For the same compound, in “Water solubility”, the Water solubility result is recorded as “had no such concerns”.
